# “Also recorded” adds a separate entry of the source.
# Experiments:
# [1] = system: p65 nuclear import (Kpnβ1 cargo protein); test: Percentage of nuclear and cytoplasmic p65 (FIG. 4); type: cell-based
# [2] = system: PARP cleavage in CaSki cells; test: PARP cleavage analysis by Western Blot; type: cell-based; conditions: IC50 and twice the IC50 (FIG. 5), varying concentrations 12 hours (FIG. 26)
# Method: CaSki cells were treated with varying concentrations of Compound A for 12 hours, following which cells and cell floaters were harvested using RIPA buffer (10 mM Tris-Cl, pH 7.4, 150 mM NaCl, 1% sodium deoxycholate, 0.1% SDS, 1% Triton X-100, 1× complete protease inhibitor cocktail (Roche, Mannheim, Germany)) and Western Blot analysis performed, using a rabbit anti-Parp1/2 (H-250) antibody (sc-7150).
# [3] = system: NFY nuclear localisation in CaSki cells; test: Nuclear and cytoplasmic protein extraction, Western Blot; type: cell-based; conditions: IC50 concentration, 48 hours (FIGS. 11, 12)
# Method: (§1) Nuclear and cytoplasmic protein fractionation was performed using the NE-PER Nuclear Protein Extraction Kit (ThermoScientific, Rockford, Ill., USA), according to the manufacturer's instructions. […] Western Blot analysis was performed using a goat anti-Karyopherin α2 (C-20) antibody (sc-6917, Santa Cruz Biotechnology), and a rabbit anti-NFYA (H-209) antibody (sc-10779, Santa Cruz Biotechnology). An anti-β-tubulin (H-235) antibody (sc-9104, Santa Cruz Biotechnology) was used to control for cytoplasmic protein loading and a rabbit anti-TATA-box binding protein (TBP) (N-12) and antibody (sc-204, Santa Cruz Biotechnology) to control for nuclear protein loading. Densitometry was performed using Image J.
# [4] = system: endogenous Kpnα2 nuclear localisation in CaSki cells; test: as above; type: cell-based; conditions: IC50 concentration, 48 hours (FIGS. 11, 12)
# Method: as §1
# [5] = system: AP-1 transcriptional activity in CaSki cells; test: AP-1 luciferase reporter assay; type: cell-based; conditions: 10 or 15 μM, 24 hours (FIG. 15)
# Method: (§2) To assay for AP-1 and p65 luciferase activities, 40 000 CaSki cells were plated in 24-well plates, and transfected with 50 ng of an API luciferase reporter (containing four copies of the AP-1 binding site) or 50 ng of a p65 luciferase reporter (containing five copies of the p65 binding site, Clontech, CA, USA) and 5 ng pRL-TK (encoding Renilla luciferase, Promega), using 0.16 μl TransFectin™ lipid reagent (Bio-Rad, Hercules, Calif., USA). The following day cells were treated with 10 or 15 μM Compound A. Luciferase activity was measured 24 hours after Compound A treatment using the Dual-LuciferaseR Reporter assay system (Promega, Madison, Wis., USA), according to the manufacturers' instructions. Luciferase readings were measured using the Veritas™ microplate luminometer (Promega) and luciferase readings were normalised to Renilla luciferase in the same extract.
# [6] = system: p65/NFκB transcriptional activity in CaSki cells; test: p65 luciferase reporter assay; type: cell-based; conditions: 10 or 15 μM, 24 hours (FIG. 15)
# Method: as §2
# [7] = system: NFAT transcriptional activity in NFAT-transfected HeLa cells; test: NFAT luciferase reporter assay; type: cell-based; conditions: stimulated with TPA and ionomycin (FIGS. 16-20)
# Method: To assay for NFAT luciferase activity, 30 000 HeLa cells were plated per well in 24-well plates, and transfected with 50 ng GFP-NFAT plasmid (Addgene plasmid #24219, gift of Jerry Crabtree (Beals C R, Clipstone N A, Ho S N, Crabtree G R. Nuclear localization of NF-ATc by a calcineurin-dependent, cyclosporin-sensitive intramolecular interaction. Genes Dev 1997 Apr. 1; 11(7):824-34)), 50 ng NFAT-luciferase (Addgene plasmid #10959, gift of Toren Finkel (Ichida M, Finkel T. Ras regulates NFAT3 activity in cardiac myocytes. J Biol Chem 2001 Feb. 2; 276(5):3524-30)), and 5 ng pRL-TK, using 0.4 μl Genecellin™ Transfection Reagent (Celtic Molecular Diagnostics, South Africa). The NFAT-luciferase reporter plasmid contains three tandem repeats of a 30 bp fragment of the IL-2 promoter known to bind NFAT. The following day cells were treated with 10 or 15 μM Compound A and after an overnight incubation, stimulated with 100 nM TPA (Sigma) and 1.3 μM Ionomycin (Santa Cruz Biotechnology, Santa Cruz, Calif., USA) for 5 hours, following which luciferase activity was measured.
# An assay for nuclear NFAT following ionomycin and Compound A treatment was carried out, using an NFAT-luciferase reporter that is activated by nuclear NFAT. The phorbol ester TPA was used to co-stimulate NFAT, as it has been shown previously that TPA and ionomycin elicit synergistic stimulation of NFAT luciferase activity (Northrop J P, Ullman K S, Crabtree G R. Characterization of the nuclear and cytoplasmic components of the lymphoid-specific nuclear factor of activated T cells (NF-AT) complex. J Biol Chem 1993 Feb. 5; 268(4):2917-23).
# [8] = system: CaSki, HeLa, KYSE30 and WHCO6 cancer cells; test: Cell proliferation assay (MTT), cancer cells; type: cell-based
# Method: (§3) To assay for cell proliferation after Compound A treatment, 5000 cells/well were plated in 96-well plates and treated with 5, 10 or 15 μM Compound A, after which cell proliferation was monitored every 24 hours for four days, using MTT.
# (§4) This effect was sustained for the full 5 day time period, confirming that there was no population of cells that recovered from the treatment.
# [9] = system: DMB and FG0 non-cancer fibroblast cells; test: Cell proliferation assay (MTT), non-cancer cells; type: cell-based
# Method: as §3, §4
# [10] = system: HeLa and KYSE30 cells; test: Anchorage-independent colony formation; type: cell-based; conditions: 10 μM; polyheme-coated plates, 9 days (FIG. 23)
# Method: The anchorage-independent proliferation of cancer cells was measured in response to Compound A treatment, as cells grown in this manner are more representative of tumour cells in vivo. Cells were grown on polyheme-coated plates and cell proliferation monitored 9 days after treatment, using MTT assays.
# [11] = system: WHCO6 tumours; test: Xenograft tumour model; type: in vivo; conditions: female nude mice, 50 mg/kg i.p. every 2-3 days for 3 weeks (FIG. 28)
# Method: (§5) WHCO6 cells were harvested and resuspended in PBS. For tumour inoculation, cancer cells (5×10^6 per mouse) were s.c. implanted into the hind flanks of female nude mice. Once tumours had reached a palpable size, drug treatment was initiated, where tumour-bearing mice were randomized and dosed i.p. with either vehicle (DMSO) or Compound A (50 mg/kg), every 2-3 days for 3 weeks. Tumour volumes were measured twice a week, using calipers, and tumour volume estimated using the following formula: volume=(length×width×width)/2. Mice were sacrificed 3 weeks after the commencement of drug treatment.
# [12] = Body mass of tumour-bearing mice during treatment; type: in vivo; conditions: WHCO6 tumour-bearing mice; 50 mg/kg i.p. over the course of the treatment (FIG. 29)
# Method: as §5
smiles,measurement,setting,value
"CN(C)CCCn1c(N)c(-c2nc3ccccc3[nH]2)c2nc3ccccc3nc21 [Compound A, 3-(1H-benzimidazol-2-yl)-1-(3-dimethylaminopropyl)pyrrolo[5,4-b]quinoxalin-2-amine]",nuclear import of Kpnβ1 cargo protein (percentage of nuclear p65 relative to cytoplasmic p65),[1],inhibit the nuclear import of Kpnβ1 cargo protein
same,PARP cleavage as an indicator of apoptosis,[2],induce cancer cell death via apoptosis; also recorded: increase in the levels of the 89 kDa cleaved PARP
same,NFY in the nuclear fraction,[3],decrease
same,amount of Kpnα2 in the nucleus,[4],decrease
same,AP-1 luciferase activity,[5],decreased in a dose-dependent manner
same,p65 luciferase activity,[6],decreased in a dose-dependent manner
same,NFAT activation (NFAT-luciferase reporter),[7],significantly diminished NFAT activation
same,cell death,[8]; 10 μM (FIG. 22),100%
same,cell death in proliferation assay,"[8]; 10 and 15 μM, within 24 hour (FIG. 21 A-D)",complete cell death
same,cell proliferation,[9]; 10 μM (FIGS. 21 E and F),proliferated relatively normally
same,time within which cell death occurred,[9]; 15 μM,24 to 48 h
same,anchorage-independent colony formation,[10],unable to form colonies
same,tumour growth (normalised tumour volume),[11],significantly inhibits tumour growth
same,body mass of the mice,[12],did not change

# From US10220033B2, “Substituted benzoxazepine for cancer therapy” (University of Cape Town, priority 2014, dated 2019)
